Assay results taken from patent US10925831B2, “Liposomal formulations of platinum-acridine anticancer agents and methods thereof” (Wake Forest University, priority 2017, dated 2021).

System: A549 xenografts
Test: A549 xenograft study
Type: in vivo, mice
Conditions: P8-A1 q4dx4 i.v. 0.4 mg/kg; Lipo4*-P8-A1 q4dx11 i.v. 0.4 mg/kg; cisplatin q4dx11 i.p. 4.0 mg/kg; n=8
Description: FIGS. 10A, 10B, 10C and 10D illustrate evaluation of P8-A1 and its liposomal formulation, Lipo4-P8-A1, in a A549 xenograft model in mice. FIGS. 10 A-B illustrate tumor volumes and mouse weights monitored for Lipo4-P8-A1 and control, administered q4dx4, i.v. @ 0.4 mg/kg, n=10. Tumor growth inhibition is 65% on day 41, P<0.05. Mouse weight loss is 22% on day 41, potentially reversible. No other toxicity symptoms noted. FIGS. 10 C-D illustrate tumor volumes and mouse weights monitored for P8-A1 (q4dx4, i.v. @ 0.4 mg/kg), Lipo4*-P8-A1, (q4dx11, i.v. @ 0.4 mg/kg), cisplatin (q4dx11, i.p. @ 4.0 mg/kg), and control (q4dx11, i.v.). A total of 8 mice per group were treated (n=8). See text for discussion. […]
A549 Xenograft study. […] Animal weights and tumor volumes were measured and recorded throughout the entire study after the first dose was administered. Tumor volumes were determined using the formula: V (mm^3)=d^2×D/2, where d and D are the shortest and longest dimension of the tumor, respectively, and are reported as the sum of both tumors for each test animal. […] The concentration of Pt in selected tissues was determined by quadrupole inductively-coupled mass spectrometry (ICP-MS) on a Thermo ICP-MS instrument at the Analytic Chemistry Service facility of Research Triangle Institute, Research Triangle Park, N.C. […]

## N.N.[Cl][Pt][Cl] [Cisplatin, cisplatin]
  antitumor efficacy, growth inhibition (Study B): does not show efficacy
